Data taken from ChEMBL document CHEMBL3621066, “Vascular barrier protective effects of 3-N- or 3-O-cinnamoyl carbazole derivatives” (Bioorg Med Chem Lett, 2015).

Assays:
Mus musculus [1] = assay: Antiinflammatory activity in mouse assessed as inhibition of HMGB1-induced hyperpermeability of Evans blue dye to peritoneal cavity at 402.4 ug/kg administered 16 hrs after HMGB1 challenge measured after 6 hrs; type: functional
HUVEC [2] = assay: Antiinflammatory activity in human HUVEC assessed as inhibition of HMGB1-induced human neutrophils migration into cells at 10 uM after 6 hrs using crystal violet staining; type: functional
HUVEC [3] = assay: Inhibition of HMGB1-induced hyperpermeability of Evans blue-bound albumin in human HUVEC at 10 uM after 6 hrs by spectrophotometric analysis relative to control; type: functional
HUVEC [4] = assay: Cytotoxicity against human HUVEC assessed as cell viability up to 20 uM after 24 hrs; type: cell-based
Mus musculus [5] = assay: Antiinflammatory activity in mouse assessed as inhibition of HMGB1-induced leukocyte migration into peritoneal cavity at 402.4 ug/kg administered 16 hrs after HMGB1 challenge measured after 6 hrs by light microscopic analysis; type: functional
Mus musculus [6] = assay: Antiinflammatory activity in mouse assessed as inhibition of HMGB1-induced leukocyte migration into peritoneal cavity at 372.4 ug/kg administered 16 hrs after HMGB1 challenge measured after 6 hrs by light microscopic analysis; type: functional
Mus musculus [7] = assay: Antiinflammatory activity in mouse assessed as inhibition of HMGB1-induced hyperpermeability of Evans blue dye to peritoneal cavity at 372.4 ug/kg administered 16 hrs after HMGB1 challenge measured after 6 hrs; type: functional
Mus musculus [8] = assay: Antiinflammatory activity in mouse assessed as inhibition of HMGB1-induced leukocyte migration into peritoneal cavity at 403.4 ug/kg administered 16 hrs after HMGB1 challenge measured after 6 hrs by light microscopic analysis; type: functional
Mus musculus [9] = assay: Antiinflammatory activity in mouse assessed as inhibition of HMGB1-induced hyperpermeability of Evans blue dye to peritoneal cavity at 403.4 ug/kg administered 16 hrs after HMGB1 challenge measured after 6 hrs; type: functional
Mus musculus [10] = assay: Antiinflammatory activity in mouse assessed as inhibition of HMGB1-induced leukocyte migration into peritoneal cavity at 342.4 ug/kg administered 16 hrs after HMGB1 challenge measured after 6 hrs by light microscopic analysis; type: functional
Mus musculus [11] = assay: Antiinflammatory activity in mouse assessed as inhibition of HMGB1-induced hyperpermeability of Evans blue dye to peritoneal cavity at 342.4 ug/kg administered 16 hrs after HMGB1 challenge measured after 6 hrs; type: functional

COc1cc(/C=C/C(=O)Nc2ccc3[nH]c4ccccc4c3c2)cc(OC)c1OC
inhibition in vivo at 0.4024 mg/kg (Mus musculus [1]): 57.5%
inhibition at 10 µM (HUVEC [2]): 62%
inhibition at 10 µM (HUVEC [3]): 68.4%
Activity (HUVEC [4]): Non-toxic
inhibition in vivo at 0.4024 mg/kg (Mus musculus [5]): 60.3%

COc1ccc(/C=C/C(=O)Nc2ccc3[nH]c4ccccc4c3c2)cc1OC
inhibition at 10 µM (HUVEC [2]): 43.5%
inhibition in vivo at 0.3724 mg/kg (Mus musculus [6]): 39%
inhibition in vivo at 0.3724 mg/kg (Mus musculus [7]): 26.2%
inhibition at 10 µM (HUVEC [3]): 42.9%
Activity (HUVEC [4]): Non-toxic

COc1cc(/C=C/C(=O)Oc2ccc3[nH]c4ccccc4c3c2)cc(OC)c1OC
inhibition in vivo at 0.4034 mg/kg (Mus musculus [8]): 61.2%
inhibition at 10 µM (HUVEC [2]): 65.4%
inhibition at 10 µM (HUVEC [3]): 70.2%
Activity (HUVEC [4]): Non-toxic
inhibition in vivo at 0.4034 mg/kg (Mus musculus [9]): 58.9%

COc1ccc(/C=C/C(=O)Nc2ccc3[nH]c4ccccc4c3c2)cc1
inhibition in vivo at 0.3424 mg/kg (Mus musculus [10]): 0.8%
inhibition at 10 µM (HUVEC [2]): 4.8%
inhibition at 10 µM (HUVEC [3]): 3.6%
Activity (HUVEC [4]): Non-toxic
inhibition in vivo at 0.3424 mg/kg (Mus musculus [11]): 1.4%
